Experimental data taken from PubChem BioAssay AID1919002 (Molecular Pharmacology Branch, DTP, NCI, 2023).

Tested on: 743489-274-T-PDC complex spheroid growth
Assay: Anticancer human tumor 743489-274-T-PDC patient-derived renal cell carcinoma cell line growth inhibition [AhR]
Conditions: for IC50: curve of first compound; for viability, T/C: stronger effect = lower value
How it was run: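 Agents were dosed in half-log steps down from roughly clinical Cmax, or from 10 microM where Cmax was unknown, alone and with AhR antagonists. Read-out: percent test/control growth of tumor spheroids containing HUVEC and MSC stromal cells.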

[1] = second compound 0.1 µM, first compound 0.0316 µM
[2] = second compound 0.1 µM, first compound 0.1 µM
[3] = second compound 0.1 µM, first compound 0.316 µM
[4] = second compound 0.1 µM, first compound 1 µM
[5] = second compound 0.1 µM, first compound 3.16 µM
[6] = second compound 0.1 µM, first compound 10 µM
[7] = second compound 0.316 µM, first compound 0.0316 µM
[8] = second compound 0.316 µM, first compound 0.1 µM
[9] = second compound 0.316 µM, first compound 0.316 µM
[10] = second compound 0.316 µM, first compound 1 µM
[11] = second compound 0.316 µM, first compound 3.16 µM
[12] = second compound 0.316 µM, first compound 10 µM
[13] = second compound 1 µM, first compound 0.0316 µM
[14] = second compound 1 µM, first compound 0.1 µM
[15] = second compound 1 µM, first compound 0.316 µM
[16] = second compound 1 µM, first compound 1 µM
[17] = second compound 1 µM, first compound 3.16 µM
[18] = second compound 1 µM, first compound 10 µM
[19] = second compound 3.16 µM, first compound 0.0316 µM
[20] = second compound 3.16 µM, first compound 0.1 µM
[21] = second compound 3.16 µM, first compound 0.316 µM
[22] = second compound 3.16 µM, first compound 1 µM
[23] = second compound 3.16 µM, first compound 3.16 µM
[24] = second compound 3.16 µM, first compound 10 µM
[25] = second compound 10 µM, first compound 0.0316 µM
[26] = second compound 10 µM, first compound 0.1 µM
[27] = second compound 10 µM, first compound 0.316 µM
[28] = second compound 10 µM, first compound 1 µM
[29] = second compound 10 µM, first compound 3.16 µM
[30] = second compound 10 µM, first compound 10 µM
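Also: spheroids exposed to agents for 7 days before readout.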
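For viability, T/C in this document: 100% = DMSO vehicle control wells.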

CC(C)CC(NC(=O)C(Cc1ccccc1)NC(=O)c1cnccn1)B(O)O (stereo not given) + Cc1ccccc1N=Nc1ccc(NC(=O)c2ccnn2C)c(C)c1
IC50 (second compound 0.1 µM): 0.0218 µM | IC50 (second compound 0.316 µM): 0.0248 µM | IC50 (second compound 1 µM): 0.0282 µM | IC50 (second compound 3.16 µM): 0.0222 µM | IC50 (second compound 10 µM): 0.0212 µM | viability, T/C (second compound 0.1 µM, first compound 0.000949 µM): 99.1% | viability, T/C (second compound 0.1 µM, first compound 0.003 µM): 115% | viability, T/C (second compound 0.1 µM, first compound 0.00949 µM): 97.4% | viability, T/C (second compound 0.1 µM, first compound 0.03 µM): 31.5% | viability, T/C (second compound 0.1 µM, first compound 0.0949 µM): 13.8% | viability, T/C (second compound 0.1 µM, first compound 0.3 µM): 4.06% | viability, T/C (second compound 0.316 µM, first compound 0.000949 µM): 83.8% | viability, T/C (second compound 0.316 µM, first compound 0.003 µM): 98.5% | viability, T/C (second compound 0.316 µM, first compound 0.00949 µM): 100% | viability, T/C (second compound 0.316 µM, first compound 0.03 µM): 41.1% | viability, T/C (second compound 0.316 µM, first compound 0.0949 µM): 16.2% | viability, T/C (second compound 0.316 µM, first compound 0.3 µM): 2.22% | viability, T/C (second compound 1 µM, first compound 0.000949 µM): 88.9% | viability, T/C (second compound 1 µM, first compound 0.003 µM): 111% | viability, T/C (second compound 1 µM, first compound 0.00949 µM): 113% | viability, T/C (second compound 1 µM, first compound 0.03 µM): 46.9% | viability, T/C (second compound 1 µM, first compound 0.0949 µM): 15.2% | viability, T/C (second compound 1 µM, first compound 0.3 µM): 5% | viability, T/C (second compound 3.16 µM, first compound 0.000949 µM): 89.1% | viability, T/C (second compound 3.16 µM, first compound 0.003 µM): 94.8% | viability, T/C (second compound 3.16 µM, first compound 0.00949 µM): 94.2% | viability, T/C (second compound 3.16 µM, first compound 0.03 µM): 34.9% | viability, T/C (second compound 3.16 µM, first compound 0.0949 µM): 17.3% | viability, T/C (second compound 3.16 µM, first compound 0.3 µM): 2.43% | viability, T/C (second compound 10 µM, first compound 0.000949 µM): 77.4% | viability, T/C (second compound 10 µM, first compound 0.003 µM): 97.6% | viability, T/C (second compound 10 µM, first compound 0.00949 µM): 89.4% | viability, T/C (second compound 10 µM, first compound 0.03 µM): 33.6% | viability, T/C (second compound 10 µM, first compound 0.0949 µM): 10.4% | viability, T/C (second compound 10 µM, first compound 0.3 µM): 4.58%

COc1cc(Nc2ncc3c(n2)-c2ccc(Cl)cc2C(c2c(F)cccc2OC)=NC3)ccc1C(=O)O + Cc1ccccc1N=Nc1ccc(NC(=O)c2ccnn2C)c(C)c1
IC50 (second compound 0.1 µM): > 10 µM | IC50 (second compound 0.316 µM): > 10 µM | IC50 (second compound 1 µM): > 10 µM | IC50 (second compound 3.16 µM): > 10 µM | IC50 (second compound 10 µM): > 10 µM | viability, T/C [1]: 93.3% | viability, T/C [2]: 93% | viability, T/C [3]: 86.6% | viability, T/C [4]: 87.5% | viability, T/C [5]: 95.4% | viability, T/C [6]: 79.8% | viability, T/C [7]: 91.4% | viability, T/C [8]: 88.1% | viability, T/C [9]: 79.9% | viability, T/C [10]: 77.2% | viability, T/C [11]: 87.1% | viability, T/C [12]: 90% | viability, T/C [13]: 93% | viability, T/C [14]: 98% | viability, T/C [15]: 75.5% | viability, T/C [16]: 77% | viability, T/C [17]: 83.4% | viability, T/C [18]: 81.5% | viability, T/C [19]: 80.4% | viability, T/C [20]: 94.2% | viability, T/C [21]: 70.5% | viability, T/C [22]: 78.4% | viability, T/C [23]: 75.2% | viability, T/C [24]: 82% | viability, T/C [25]: 76.8% | viability, T/C [26]: 81.2% | viability, T/C [27]: 76.2% | viability, T/C [28]: 74.3% | viability, T/C [29]: 65.8% | viability, T/C [30]: 78.7%

NS(=O)(=O)OCC1CC(n2ccc3c(NC4CCc5ccccc54)ncnc32)CC1O (stereo not given) + Cc1ccccc1N=Nc1ccc(NC(=O)c2ccnn2C)c(C)c1
IC50 (second compound 0.1 µM): > 10 µM | IC50 (second compound 0.316 µM): > 10 µM | IC50 (second compound 1 µM): > 10 µM | IC50 (second compound 3.16 µM): > 10 µM | IC50 (second compound 10 µM): > 10 µM | viability, T/C [1]: 103% | viability, T/C [2]: 110% | viability, T/C [3]: 116% | viability, T/C [4]: 146% | viability, T/C [5]: 162% | viability, T/C [6]: 140% | viability, T/C [7]: 109% | viability, T/C [8]: 95.8% | viability, T/C [9]: 112% | viability, T/C [10]: 144% | viability, T/C [11]: 137% | viability, T/C [12]: 155% | viability, T/C [13]: 98.1% | viability, T/C [14]: 104% | viability, T/C [15]: 102% | viability, T/C [16]: 144% | viability, T/C [17]: 146% | viability, T/C [18]: 141% | viability, T/C [19]: 105% | viability, T/C [20]: 90.8% | viability, T/C [21]: 112% | viability, T/C [22]: 128% | viability, T/C [23]: 152% | viability, T/C [24]: 140% | viability, T/C [25]: 96.7% | viability, T/C [26]: 103% | viability, T/C [27]: 116% | viability, T/C [28]: 130% | viability, T/C [29]: 121% | viability, T/C [30]: 115%

Nc1ccccc1NC(=O)c1ccc(CNC(=O)OCc2cccnc2)cc1 + Cc1ccccc1N=Nc1ccc(NC(=O)c2ccnn2C)c(C)c1
IC50 (second compound 0.1 µM): 4.62 µM | IC50 (second compound 0.316 µM): 2.64 µM | IC50 (second compound 1 µM): 3.67 µM | IC50 (second compound 3.16 µM): 2.63 µM | IC50 (second compound 10 µM): 2.26 µM | viability, T/C [1]: 101% | viability, T/C [2]: 96.6% | viability, T/C [3]: 95.9% | viability, T/C [4]: 80.2% | viability, T/C [5]: 63% | viability, T/C [6]: 25.4% | viability, T/C [7]: 99.9% | viability, T/C [8]: 99.7% | viability, T/C [9]: 84% | viability, T/C [10]: 79.7% | viability, T/C [11]: 42.7% | viability, T/C [12]: 23.8% | viability, T/C [13]: 89.8% | viability, T/C [14]: 95% | viability, T/C [15]: 88.2% | viability, T/C [16]: 74.3% | viability, T/C [17]: 54.7% | viability, T/C [18]: 24.5% | viability, T/C [19]: 93.3% | viability, T/C [20]: 98% | viability, T/C [21]: 88.3% | viability, T/C [22]: 70% | viability, T/C [23]: 47% | viability, T/C [24]: 28.5% | viability, T/C [25]: 86.9% | viability, T/C [26]: 95.9% | viability, T/C [27]: 88.4% | viability, T/C [28]: 66.2% | viability, T/C [29]: 44.4% | viability, T/C [30]: 28.6%

O=C(C=Cc1cccc(S(=O)(=O)Nc2ccccc2)c1)NO + Cc1ccccc1N=Nc1ccc(NC(=O)c2ccnn2C)c(C)c1
IC50 (second compound 0.1 µM): 3.11 µM | IC50 (second compound 0.316 µM): 2.29 µM | IC50 (second compound 1 µM): 2.14 µM | IC50 (second compound 3.16 µM): 3.28 µM | IC50 (second compound 10 µM): 1.24 µM | viability, T/C [1]: 78.6% | viability, T/C [2]: 88.4% | viability, T/C [3]: 73% | viability, T/C [4]: 67.7% | viability, T/C [5]: 49.9% | viability, T/C [6]: 31% | viability, T/C [7]: 85.4% | viability, T/C [8]: 78.3% | viability, T/C [9]: 75.9% | viability, T/C [10]: 62.6% | viability, T/C [11]: 44.8% | viability, T/C [12]: 26.9% | viability, T/C [13]: 77.1% | viability, T/C [14]: 75.6% | viability, T/C [15]: 75.5% | viability, T/C [16]: 70.6% | viability, T/C [17]: 39.5% | viability, T/C [18]: 25% | viability, T/C [19]: 79.7% | viability, T/C [20]: 81.2% | viability, T/C [21]: 75.2% | viability, T/C [22]: 68.9% | viability, T/C [23]: 50.7% | viability, T/C [24]: 25.8% | viability, T/C [25]: 75.4% | viability, T/C [26]: 76.9% | viability, T/C [27]: 64% | viability, T/C [28]: 56.1% | viability, T/C [29]: 34% | viability, T/C [30]: 27.9%

O=C(c1cc(Cc2n[nH]c(=O)c3ccccc23)ccc1F)N1CCN(C(=O)C2CC2)CC1 + Cc1ccccc1N=Nc1ccc(NC(=O)c2ccnn2C)c(C)c1
IC50 (second compound 0.1 µM): > 10 µM | IC50 (second compound 0.316 µM): > 10 µM | IC50 (second compound 1 µM): > 10 µM | IC50 (second compound 3.16 µM): > 10 µM | IC50 (second compound 10 µM): > 10 µM | viability, T/C [1]: 104% | viability, T/C [2]: 96.2% | viability, T/C [3]: 91.8% | viability, T/C [4]: 90% | viability, T/C [5]: 108% | viability, T/C [6]: 94.6% | viability, T/C [7]: 94.4% | viability, T/C [8]: 94.4% | viability, T/C [9]: 94.3% | viability, T/C [10]: 90.2% | viability, T/C [11]: 91.7% | viability, T/C [12]: 94.2% | viability, T/C [13]: 97% | viability, T/C [14]: 95.2% | viability, T/C [15]: 111% | viability, T/C [16]: 96.1% | viability, T/C [17]: 93.8% | viability, T/C [18]: 83.3% | viability, T/C [19]: 97% | viability, T/C [20]: 87.5% | viability, T/C [21]: 91.4% | viability, T/C [22]: 90.6% | viability, T/C [23]: 101% | viability, T/C [24]: 99.3% | viability, T/C [25]: 92.4% | viability, T/C [26]: 110% | viability, T/C [27]: 106% | viability, T/C [28]: 96.8% | viability, T/C [29]: 92.7% | viability, T/C [30]: 85.4%
